This is an account of results in US20100256379A1, “ANTI-VIRAL AGENT CONTAINING HETEROCYCLIC AROMATIC COMPOUND AS ACTIVE INGREDIENT” (Kagoshima University, priority 2007, published 2010).

Read-outs that look alike come from different tables or passages of the source. Marks after values point to notes of the source that are not given here. Some results are limits rather than exact numbers.

For data set [1], the system named is Bovine viral diarrhea virus (BVDV) Nose strain. Description: Anti-BVDV activity: inhibition of viral replication in BVDV-infected MDBK cells (LDH in culture supernatant). It is filed as cell-based. The note with it: for EC50: Bovine viral diarrhea virus isolates and strains, 72 h, read-out: EC50 (50% effective concentration, 50% inhibition of viral replication); for Selectivity index (CC50/EC50): CC50 in uninfected MDBK cells / EC50 against BVDV; for anti-BVDV effects (in words): summary statements on the tables. The source says: The antiviral activity of the compound according to the present invention can be evaluated by a method that involves infecting cells with a virus, adding the compound according to the present invention to medium before, after, or simultaneously with infection, and then measuring the percent inhibition of viral replication. Specifically, such percent inhibition of viral replication can be evaluated by measuring the activity of lactate dehydrogenase (LDH) in the culture supernatant of the virus-infected cells using an LDH cytotoxicity detection kit (Takara Biochemicals), for example. LDH is an enzyme that exists in the cytoplasm and is generally almost never released extracellularly because of the presence of cell membrane. Meanwhile, when cells are infected with a virus and then the virus replicated within the cells, infected cells die. As a result of viral infection, cell membrane is disrupted and then LDH is released into the culture supernatant. […] That is, the degree of cell disruption due to viral replication and the LDH level in the culture supernatant show extremely good positive correlation. Therefore, the antiviral activity (inhibition of viral replication) of the compound according to the present invention can be measured via quantitative determination of LDH in the culture supernatant.
Furthermore, the selectivity index (CC50/EC50) is calculated. The higher the selectivity index, the higher the effects of inhibiting viral replication alone without damaging cells. Therefore, the antiviral activity of the compound according to the present invention can be evaluated using the selectivity index as an index. Also, the antiviral activity of the compound according to the present invention can be evaluated by assay (e.g., Western blot analysis, ELISA, or flow cytometry) for measuring the viral antigen level in virus-infected cells cultured in medium containing the compound according to the present invention or assay (e.g., Northern blot analysis or quantitative RT-PCR) for measuring the virus gene (RNA) level in virus-infected cells.
1) Cell: Madin-Darby bovine kidney cell (hereinafter, referred to as “MDBK cell”);
2) Virus: Bovine viral diarrhea virus (hereinafter, referred to as “BVDV”) Nose strain;
MDBK cells (2×10^5 cells/ml) were infected with BVDV at an MOI of 0.01 (multiplicity of infection, MOI=0.01). Next, a solution containing BVDV-infected cells was dispensed into a 96-well flat bottom microtiter plate at 100 μl per well, simultaneously with the addition of a compound subjected to 5-fold serial dilution, followed by 3 days of culture at 37° C. (5% CO2).
After 3 days of culture, 50 μl of the cultured supernatant was collected and then transferred to another microtiter plate and then 50 μl of the reaction solution of an LDH cytotoxicity detection kit was added. After 30 minutes of culture at room temperature, the microtiter plate was applied to a microplate reader (BioRad Laboratories) and then absorbance was measured at 490 nm/690 nm.
The percent inhibition (%) of viral replication was calculated by the following formula based on the thus obtained absorbance:
100−[(ODT)V−(ODC)M]/[(ODC)V−(ODC)M]×100(%)

Data set [2] has as its system Madin-Darby bovine kidney cell (MDBK cell). The data set is described as follows: Cytotoxicity: inhibition of growth of uninfected MDBK cells (TetraColor One MTT). It is filed as cell-based. On the procedure: (§1) Also, after addition of the compound according to the present invention to medium containing cells not infected with any virus, the percent inhibition of cell growth of the compound according to the present invention is measured. For example, with the use of a reagent for viable cell measurement, such as a water soluble MTT solution TetraColor One™ (Seikagaku Corporation), the percent inhibition of cell growth can be measured.
(§2) At the same time, for measurement of toxicity of each compound, the compound was added to a microtiter plate containing MDBK cells not infected with the virus as described above, followed by 3 days of culture. After 3 days of culture, TetraColor One™ was added to a microtiter plate at 10 μl per well. After 1 hour of incubation at 37° C., the microtiter plate was applied to a microplate reader and then absorbance was measured at 450 nm/690 nm.
(§3) The percent inhibition (%) of cell growth was calculated by the following formula based on the thus obtained absorbance: […]

Test in data set [3]: as above
In kind it is cell-based, bovine. Particulars: bovine. On the procedure: as §1, §2, §3

Where [4] appears, read: BVDV-infected MDBK cells, MOI 0.01, 3 days of culture, LDH readout, mean of at least two experiments.
The mark [5] stands for this setting: read-out: CC50 (50% cytotoxicity concentration, 50% inhibition of cell growth), uninfected MDBK cells, 3 days of culture, MTT readout, mean of at least two experiments.

For `Cc1nccc2[nH]c3ccccc3c12` [Compound 1], in data set [1] (setting [4]), the EC50 was 0.58 µM. Besides, the “Selectivity index (CC50/EC50)” value in data set [1] is given as 16.7. In addition, the CC50 in data set [2] (bovine, 3 days) turned out to be 9.7 µM.
Consider `c1ccc2c(c1)Cc1ccccc1-2` [Fluorene, reference compound], for which, in data set [1] (setting [4]), the EC50 is greater than 100 µM. Also, the CC50 in data set [2] (bovine, 3 days) was greater than 100 µM.
`Cc1cncc2c3ccccc3n(C)c12` [Compound 12]: in data set [1] (setting [4]), the EC50 was found to be 0.043 µM. Besides, in data set [1], the “Selectivity index (CC50/EC50)” value worked out at 223.2; the “anti-BVDV effects (in words)” value is “strongest activity and high selectivity”. The CC50 at 3 days in data set [3] was found to be 9.6 µM.
Turning to `Cc1cccc2c3cnccc3n(C)c12` [Compound 13], in data set [1] (setting [4]), the EC50 turned out to be 0.3 µM. For the same compound, the “Selectivity index (CC50/EC50)” value in data set [1] is reported as 36.7. The CC50 at 3 days in data set [3] was 11 µM.
For the compound `c1ccc2c(c1)[nH]c1cccnc12` [δ-Carboline, reference compound], in data set [1] (setting [4]), the EC50 is greater than 100 µM. In addition, in data set [1], the “anti-BVDV effects (in words)” value was “lower than those of β-carboline and γ-carboline”. Moreover, the CC50 in data set [2] (bovine, 3 days) was greater than 100 µM.
As to `NC(=O)c1ncn([C@@H]2O[C@H](CO)[C@@H](O)[C@H]2O)n1` [Ribavirin, 1-β-D-ribofuranousyl-1,2,4-triazole-3-carboxamide, reference compound], the EC50 in data set [1] (setting [4]) turned out to be 3.9 µM. In data set [1], the “anti-BVDV effects (in words)” value is “selective anti-BVDV effects”. In data set [3], this compound registered a CC50 at 3 days of 15.1 µM.
Turning to `Cc1cccc2c1c1cnccc1n2C` [Compound 16], in data set [1] (setting [4]), the EC50 is 0.29 µM. The “Selectivity index (CC50/EC50)” value in data set [1] turned out to be 22.1. The compound also returned a CC50 at 3 days in data set [3] of 6.4 µM.
Consider `Cc1cc2c(cn1)c1ccccc1n2C` [Compound 11], for which, in data set [1] (setting [4]), the EC50 amounted to 0.062 µM. For the same compound, in data set [1], the “Selectivity index (CC50/EC50)” value is listed as 338.7; the “anti-BVDV effects (in words)” value is “activity equivalent to that of compound 12 and the highest selectivity”. In data set [3], the CC50 at 3 days was found to be 21 µM.
As for Interferon-α, the “EC50 (50% effective concentration, 50% inhibition of viral replication)” value in data set [1] (interferon-α, BVDV-infected MDBK cells, MOI 0.01, 3 days, LDH readout) is listed as 5.5* IU/well.
With `Cc1ccc2c3cnccc3n(C)c2c1` [Compound 14], the EC50 in data set [1] (setting [4]) came to 0.3 µM. Also, in data set [1], the “Selectivity index (CC50/EC50)” value came to 133.3. Further, the CC50 at 3 days in data set [3] is 40 µM.
Consider `Cc1cc2[nH]c3ccccc3c2cn1` [Compound 3], for which the EC50 in data set [1] (setting [4]) was determined as 2.2 µM. The “Selectivity index (CC50/EC50)” value in data set [1] is 31.8. The CC50 in data set [2] (bovine, 3 days) is 70 µM.
Regarding `c1ccc2c(c1)[nH]c1ccccc12` [Carbazole, reference compound], the EC50 in data set [1] (MDBK) was greater than 100 µM. The CC50 in data set [2] (setting [5]) is greater than 100 µM.
Consider `c1ccc2c(c1)[nH]c1cnccc12` [β-Carboline], for which the EC50 in data set [1] (MDBK) was found to be 8.5 µM. In data set [1], the “Selectivity index (CC50/EC50)” value is 10.2 and the “anti-BVDV effects (in words)” value is “selective anti-BVDV effects”. This compound also yielded a CC50 at 3 days in data set [3] (uninfected MDBK cells, 3 days of culture, MTT readout, mean of at least two experiments) of 87 µM.
In the case of `c1ccc2c(c1)[nH]c1ncccc12` [α-Carboline, reference compound], the EC50 in data set [1] (setting [4]) was found to be 91 µM. In data set [1], the “Selectivity index (CC50/EC50)” value is on record as greater than 1.1; the “anti-BVDV effects (in words)” value is “lower than those of β-carboline and γ-carboline”. The CC50 in data set [2] (bovine, 3 days) was greater than 100 µM.
With `Cc1ccc2[nH]c3ccncc3c2c1` [Compound 8], the EC50 in data set [1] (setting [4]) came to 3 µM. Besides, the “Selectivity index (CC50/EC50)” value in data set [1] came to 4. The CC50 in data set [2] (bovine, 3 days) came out at 12 µM.
Taken in the same sequence, the figures for `Cc1cccc2c1[nH]c1ccncc12` [Compound 6] were 1.7 µM, 14.1 and 24 µM.
As for `c1ccc2c(c1)[nH]c1ccncc12` [γ-Carboline], the EC50 in data set [1] (setting [4]) was found to be 2.1 µM. For the same compound, in data set [1], the “Selectivity index (CC50/EC50)” value amounted to 19.5 and the “anti-BVDV effects (in words)” value is recorded as “selective anti-BVDV effects”. The CC50 at 3 days in data set [3] came out at 41 µM.
As to `Cc1cccc2[nH]c3ccncc3c12` [Compound 9], the EC50 in data set [1] (setting [4]) came to 1.2 µM. Moreover, the “Selectivity index (CC50/EC50)” value in data set [1] worked out at 13.3. In data set [2] (bovine, 3 days), this compound came in with a CC50 of 16 µM.
As for `Cc1cncc2c1[nH]c1ccccc12` [Compound 4], the EC50 in data set [1] (setting [4]) came to 0.55 µM. In data set [1], the “Selectivity index (CC50/EC50)” value was 38.2. In data set [2] (bovine, 3 days), this compound had a CC50 of 21 µM.
In the case of `Cc1ccc2c(c1)c1cnccc1n2C` [Compound 15], in data set [1] (setting [4]), the EC50 worked out at 0.35 µM. Also, the “Selectivity index (CC50/EC50)” value in data set [1] amounted to 22.0. For the same compound, in data set [3], the CC50 at 3 days came out at 7.7 µM.
Take `Cn1ccc2nc3ccccc3c-2c1` [Compound 2]: the EC50 in data set [1] (setting [4]) was determined as 4.3 µM. Moreover, the “Selectivity index (CC50/EC50)” value in data set [1] was 15.1. Besides, the CC50 in data set [2] (bovine, 3 days) stood at 65 µM.
In the case of `c1ccc2c(c1)oc1ccccc12` [Dibenzofuran, reference compound], the EC50 in data set [1] (MDBK) is greater than 100 µM. In data set [2] (setting [5]), the CC50 was greater than 100 µM.
`Cc1nccc2c1c1ccccc1n2C` [Compound 10]: the EC50 in data set [1] (setting [4]) is 0.2 µM. For the same compound, in data set [1], the “Selectivity index (CC50/EC50)” value was 26.0. In data set [3], this compound came in with a CC50 at 3 days of 5.2 µM.
On to `Cc1ccc2c(c1)[nH]c1ccncc12` [Compound 7], for which, in data set [1] (setting [4]), the EC50 came to 1.1 µM. The “Selectivity index (CC50/EC50)” value in data set [1] stood at 21.8. The CC50 in data set [2] (bovine, 3 days) was determined as 24 µM.
Regarding `Cn1c2ccccc2c2cnccc21` [Compound 5], the EC50 in data set [1] (setting [4]) amounted to 0.26 µM. Also, in data set [1], the “Selectivity index (CC50/EC50)” value is on record as 111.5; the “anti-BVDV effects (in words)” value was “strongest activity and the highest selectivity”. Further, the CC50 in data set [2] (bovine, 3 days) was determined as 29 µM.
